Source: publication PMC5962642, “Dynamic imaging of adaptive stress response pathway activation for prediction of drug induced liver injury” (Archives of Toxicology, 2018)

Assays:
[1] = C-max obtained from FDA or literature; ref per compound (FDA, Dailymed, Xu, O’Brien, Khetani, Regenthal, Gustafsson, Dawson, Ogutu, Patel, Schmidt, Ravic, Keisu, Hu, Wagner); cited from earlier work
[2] = two classes made from the FDA DILI-concern labeling
[3] = ref Chen et al. [2016], cited from earlier work; for DILI con. (DILI-concern labeling): FDA DILI labeling; for Hepa. (hepatotoxicity class): FDA labeling in eight classes of hepatotoxicity
[4] = ref livertox.nih.gov database; cited from earlier work

Compound | Cmax [1] [µM] | Severity class [2] | DILI con. (DILI-concern labeling) [3] | Hepa. (hepatotoxicity class) [3] | Metab (metabolic potential) [4]
C[C@H]1O[C@H](O[C@H]2[C@H](O)[C@@H](O)[C@@H](O[C@H]3[C@H](O)[C@@H](O)C(O)O[C@@H]3CO)O[C@@H]2CO)[C@H](O)[C@@H](O)[C@@H]1N[C@H]1C=C(CO)[C@@H](O)[C@H](O)[C@H]1O (stereo partly shown) [Acarbose] | 0.15 | Sev. | – | – | –
Nc1ncnc2c1ncn2CCOCP(=O)(O)O [Adefovir] | 0.085 | Non-sev. | Less-DC | 2 | –
Oc1ncnc2[nH]ncc12 [Allopunnol] | 13.8 | Sev. | Most-DC | 8 | –
C[N+](C)(C)CC(=O)O [Betaine] | 940 | Non-sev. | No-DC | 1 | –
CC(O)(CS(=O)(=O)c1ccc(F)cc1)C(=O)Nc1ccc(C#N)c(C(F)(F)F)c1 (stereo not shown) [Bicalutamide] | 1.97 | – | – | 8 | YES
CN1C(=O)CCS(=O)(=O)C1c1ccc(Cl)cc1 (stereo not shown) [Chlormezanone] | 10.6 | Sev. | Most-DC | 8 | –
CN/C(=N/CCSCc1nc[nH]c1C)NC#N [Cimetidine] | 11.9 | – | Less-DC | 2 | YES
CCOC(=O)C(C)(C)Oc1ccc(Cl)cc1 [Clofibrate] | 470 | – | Less-DC | 3 | YES
Br.COc1ccc2c(c1)[C@]13CCCC[C@@H]1[C@H](C2)N(C)CC3 [Dextromethorphan hbr] | 0.022 | Non-sev. | No-DC | – | –
CC[N+](C)(C)c1cccc(O)c1 [Edrophonium] | 60.2 | Non-sev. | – | 1 | –
CCOC(=O)[C@H](CCc1ccccc1)N[C@@H](C)C(=O)N1CCC[C@H]1C(=O)O [Enalapril] | 0.4 | – | Less-DC | 7 | YES
CCN(CC)C(=O)/C(C#N)=C/c1cc(O)c(O)c([N+](=O)[O-])c1 [Entacapone] | 3.93 | Non-sev. | Less-DC | 1 | YES
NC(N)=Nc1nc(CSCCC(N)=NS(N)(=O)=O)cs1 [Famotidine] | 0.308 | – | Less-DC | 3 | YES
CC(C(=O)O)c1cccc(Oc2ccccc2)c1 (stereo not shown) [Fenoprofen] | 58.2 | – | Most-DC | 8 | YES
CC(C(=O)O)c1ccc(-c2ccccc2)c(F)c1 (stereo not shown) [Flurbiprofen] | 57.3 | – | Amb.-DC | 3 | YES
COC1=CC(=O)C[C@@H](C)[C@]12Oc1c(Cl)c(OC)cc(OC)c1C2=O [Griseofulvin] | 4.54 | – | – | – | YES
O=C(CCCN1CCC(O)(c2ccc(Cl)cc2)CC1)c1ccc(F)cc1 [Haloperidol] | 0.005 | – | – | 5 | YES
CN(C)CCCN1c2ccccc2CCc2ccccc21 [Imipramine] | 0.29 | – | – | – | YES
NC[C@H]1O[C@H](O[C@H]2[C@H](O)[C@@H](O[C@H]3O[C@H](CO)[C@@H](O)[C@H](N)[C@H]3O)[C@H](N)C[C@@H]2N)[C@H](O)[C@@H](O)[C@@H]1O [Kanamycin] | 60.1 | Non-sev. | – | – | –
Cc1cccc(C)c1OCC(C)N (stereo not shown) [Mexiletine] | 3.83 | – | – | 3 | YES

Compound | Cmax [1] [µM] | Severity class [2] | DILI con. (DILI-concern labeling) [3] | Hepa. (hepatotoxicity class) [3] | Metab (metabolic potential) [4]
CS(=O)(=O)Nc1ccc([N+](=O)[O-])cc1Oc1ccccc1 [Nimesulide] | 21.1 | – | – | – | YES
CNC(=C[N+](=O)[O-])NCCSCc1csc(CN(C)C)n1 [Nizatidine] | 4 | – | Less-DC | 5 | YES
COc1ccc2[nH]c([S+]([O-])Cc3ncc(C)c(OC)c3C)nc2c1 (stereo not shown) [Omeprazole] | 4.7 | – | Less-DC | 4 | YES
Fc1ccc([C@@H]2CCNC[C@H]2COc2ccc3c(c2)OCO3)cc1 [Paroxetine] | – | – | Less-DC | 8 | YES
CCC1(c2ccccc2)C(=O)NC(=O)NC1=O [Phenobarbital] | 146 | Non-sev. | – | 3 | –
O=C1NC(=O)C(c2ccccc2)(c2ccccc2)N1 [Phenytoin] | 21.7 | – | Most-DC | 8 | YES
CCc1ccc(CCOc2ccc(CC3SC(=O)NC3=O)cc2)nc1 (stereo not shown) [Pioghtazone] | 2.95 | Non-sev. | Less-DC | 3 | –
COc1cc(NC(C)CCCN)c2ncccc2c1 (stereo not shown) [Primaquine] | – | Non-sev. | No-DC | 1 | –
CCC1(c2ccccc2)C(=O)NCNC1=O [Primidone] | 4.67 | – | – | 1 | YES
OC(CCN1CCCC1)(c1ccccc1)C1CCCCC1 (stereo not shown) [Procychdine] | – | Non-sev. | – | – | –
NC(=O)c1ncn([C@@H]2O[C@H](CO)[C@@H](O)[C@H]2O)n1 [Ribavirin] | 2.61 | – | Amb.-DC | – | YES
CO[C@H]1/C=C/O[C@@]2(C)Oc3c(C)c(O)c4c(O)c(c(/C=N/N5CCN(C)CC5)c(O)c4c3C2=O)NC(=O)/C(C)=C\C=C\[C@H](C)[C@H](O)[C@@H](C)[C@@H](O)[C@@H](C)[C@H](OC(C)=O)[C@@H]1C [Rifampicin] | 15 | – | Most-DC | – | YES
C[N+](C)(C)CCOC(=O)CCC(=O)OCC[N+](C)(C)C [Succinylcholine] | 138 | Non-sev. | No-DC | 1 | –
C=CC[C@@H]1/C=C(\C)C[C@H](C)C[C@H](OC)[C@H]2O[C@@](O)(C(=O)C(=O)N3CCCC[C@H]3C(=O)O[C@H](/C(C)=C/[C@@H]3CC[C@@H](O)[C@H](OC)C3)[C@H](C)[C@@H](O)CC1=O)[C@H](C)C[C@@H]2OC [Tacrolimus] | – | – | Less-DC | 5 | YES
CSc1ccc2c(c1)N(CCC1CCCCN1C)c1ccccc1S2 (stereo not shown) [Thiondazine] | 0.55 | Non-sev. | – | – | YES
O=c1n(CCCN2CCN(c3cccc(Cl)c3)CC2)nc2ccccn12 [Trazodone] | 5.06 | – | Less-DC | 5 | YES
Cc1c(C)c2c(c(C)c1O)CCC(C)(COc1ccc(CC3SC(=O)NC3=O)cc1)O2 (stereo not shown) [Troghtazone] | – | Sev. | Most-DC | 8 | YES
COc1cc(C(=O)NS(=O)(=O)c2ccccc2C)ccc1Cc1cn(C)c2ccc(NC(=O)OC3CCCC3)cc12 [Zafirlukast] | 1.21 | – | Most-DC | 8 | YES
CN(C)C/C=C(/c1ccc(Br)cc1)c1cccnc1 [Zimehdine] | – | Sev. | Most-DC | 8 | –
